Values quoted from earlier work, collected in patent publication US20100227801A1, “PHARMACEUTICAL COMPOSITIONS” (Scynexis, Inc., priority 2009, published 2010).

How the values were obtained:
HCV = details: phase Ib clinical trial
HCV subgenomic replicon = details: subgenomic replicon system
HCV full length replicon = details: full length replicon system

| Structure (SMILES) | activity against HCV infected patients (HCV) | inhibition of HCV-specific RNA replication (HCV subgenomic replicon) | inhibition of HCV-specific RNA replication (HCV full length replicon) |
| --- | --- | --- | --- |
| CC(C)OC(=O)[C@H](C)NP(=O)(OC[C@H]1O[C@@H](n2ccc(=O)[nH]c2=O)[C@](C)(F)[C@@H]1O)Oc1ccccc1 (stereo partly drawn) [PSI-7851] | demonstrated activity |  |  |
| C/C=C/C[C@@H](C)[C@@H](O)[C@H]1C(=O)N[C@@H](CC)C(=O)N(C)[C@H](SCCN(C)C)C(=O)N(C)[C@@H](CC(C)(C)O)C(=O)N[C@@H](C(C)C)C(=O)N(C)[C@@H](CC(C)C)C(=O)N[C@@H](C)C(=O)N[C@H](C)C(=O)N(C)[C@@H](CC(C)C)C(=O)N(C)[C@@H](CC(C)C)C(=O)N(C)[C@@H](C(C)C)C(=O)N1C [SCY-635, 3-[(R)-2-(N,N-dimethylamino)ethylthio-Sar]-4-(gammahydroxymethylleucine)cyclosporine] |  | potent and selective inhibition | potent and selective inhibition |
